System: 636577-100-R-J1-PDC complex spheroid viability
Assay: Anticancer human tumor 636577-100-R-J1-PDC patient-derived endometrial adenocarcinoma cell line growth inhibition [GQUAD]
Conditions: for IC50: curve of first compound; for viability, T/C: stronger effect = lower value
Description: DNA G-quadruplex Stabilizer Agents in Combinations in Complex Spheroids
A high-throughput screen of multi-cell type tumor spheroids was designed to identify active combinations of DNA G-quadruplex stabilizer agents and targeted small molecules. Complex spheroids include a stromal component modeled by human endothelial cells (HUVEC) and fibroblasts modeled by human mesenchymal stem cells (MSCs). The concentration ranges selected for each drug and investigational agent were based upon clinically achievable concentrations if the clinical Cmax of the agent was known.
Compounds. The drugs and investigational agents: pidnarulex (CX-5461; NSC782164), APTO-253 (NSC789042), BRACO-19 (NSC847499), peposertib (NSC802822), ceralasertib (NSC780249), elimusertib (NSC800525), camonsertib (NSC841442), AZD-1390 (NSC803789), olaparib (NSC753686), talazoparib (NSC767125), ART-558 (NSC835418), sotorasib (NSC818433), MRTX-1133 (NSC836407), SN-38 (NSC673596), topotecan (NSC609699), etoposide (NSC141540), doxorubicin (NSC123127), gemcitabine (NSC613327), 5-fluorouracil (NSC19893), paclitaxel (NSC125973), vemurafenib (NSC761431), panobinostat (NSC761190), R-306465 (JNJ-16241199; NSC773264), adavosertib (NSC754352), TP-3654 (NSC805149), carboplatin (NSC241240), KSQ-4279 (NSC840948), and staurosporine (NSC755774) were obtained from the National Cancer Institute (NCI) Developmental Therapeutics Program Chemical Repository (34). The FDA-approved anticancer drug set is available from the NCI Developmental Therapeutics Program. […] The stock solutions were prepared in dimethyl sulfoxide (DMSO, Sigma-Aldrich, St. Louis, MO, cat. D2650) at 800-fold the tested concentration and stored at -70 degrees C prior to their use. All drugs and investigational agents were tested over a range starting from a high concentration at or near the clinical Cmax and decreasing in half-log increments. If the clinical Cmax for an agent had not been determined, the highest concentration tested was 10 microM.
2.3 Cell Culture. All cells were maintained in an incubator at 37 degrees C and 5% CO2 with 95% humidity. The PDC lines were cultured according to standard operating procedures established by the NCI PDMR. All PDCs were thawed and cultured in Matrigel-coated flasks prepared with a working solution of 1X Ham's F-12 nutrient mix, without supplementation (Invitrogen, cat. 11765054), 100 U/mL penicillin-streptomycin (Invitrogen, cat. 15140122), and 2.5% Matrigel (Corning Inc., cat. 354248) for the first three passages. The 857933-349-R-J2-PDC line was cultured in 6C/Colon 1B media, which includes advanced DMEM/F-12 (Thermo Fisher Scientific, cat. 12634028), 10 mM HEPES (Thermo Fisher Scientific, cat. 15630080), 1X GlutaMAX supplement (Thermo Fisher Scientific, cat. 35050061), 0.1 mg/mL primocin (InvivoGen, cat. ant-pm-2), 10% defined fetal bovine serum, heat inactivated (HyClone Laboratories Inc., cat. SH30070.03HI), 50% L-WRN conditioned media (ATCC, cat. CRL-3276), 1.25 mM N-Acetyl-L-cysteine (Sigma-Aldrich, cat. A9165), 10 mM nicotinamide (Sigma-Aldrich, cat. N0636), 1X B-27 supplement (Thermo Fisher Scientific, cat. 17504044), 1X N-2 supplement (Thermo Fisher Scientific, cat. 17502048), 10 microM Y-27632 dihydrochloride (Tocris Bioscience, cat. 1254), and 50 ng/mL human EGF recombinant protein (Thermo Fisher Scientific, cat. PHG0311). The 485176-168-R4-J1-PDC line was cultured in Panc media, which includes all 6C/Colon 1B media components plus 100 ng/mL human FGF-10 (Thermo Fisher Scientific, cat. 100-26), 500 nM SB-431542 (Selleckchem, cat. S1067), and gastrin (Tocris, cat. 3006).
[…]
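Further: viability read after seven days of drug exposure.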
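Wherever viability, T/C is given: luminescence signal used as a proxy for viable cells; 100% = DMSO vehicle control wells.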

With `O=C(c1cc(Cc2n[nH]c(=O)c3ccccc23)ccc1F)N1CCN(C(=O)C2CC2)CC1` + CN(C)c1ccc(Nc2c3ccc(NC(=O)CCN4CCCC4)cc3nc3cc(NC(=O)CCN4CCCC4)ccc23)cc1 as the molecule, how does the IC50 (second compound 0.0316 µM) read?
The IC50 was 1.58 µM.

And the IC50 (second compound 0.1 µM)?
Its IC50 is 1.45 µM.

And the IC50 (second compound 0.316 µM)?
Its IC50 is 3.73 µM.

What about the IC50 (second compound 1 µM) of the same molecule?
Its IC50 is 1.36 µM.

What about the IC50 (second compound 3.16 µM) of the same molecule?
The IC50 was under 0.0316 µM.

And the IC50 (second compound 10 µM)?
The IC50 was under 0.0316 µM.

And the viability, T/C (second compound 0.0316 µM, first compound 0.0316 µM)?
Its viability, T/C is 93.1%.

And the viability, T/C (second compound 0.0316 µM, first compound 0.1 µM)?
The viability, T/C was 54.9%.

And the viability, T/C (second compound 0.0316 µM, first compound 0.316 µM)?
Its viability, T/C is 71%.

What about the viability, T/C (second compound 0.0316 µM, first compound 1 µM) of the same molecule?
Its viability, T/C is 63.8%.

And the viability, T/C (second compound 0.0316 µM, first compound 3.16 µM)?
The viability, T/C was 37.7%.

And the viability, T/C (second compound 0.0316 µM, first compound 10 µM)?
Its viability, T/C is 33.2%.

And the viability, T/C (second compound 0.1 µM, first compound 0.0316 µM)?
Its viability, T/C is 69.7%.

And the viability, T/C (second compound 0.1 µM, first compound 0.1 µM)?
Its viability, T/C is 54.2%.

What about the viability, T/C (second compound 0.1 µM, first compound 0.316 µM) of the same molecule?
Its viability, T/C is 52.1%.

What about the viability, T/C (second compound 0.1 µM, first compound 1 µM) of the same molecule?
Its viability, T/C is 57.7%.

What about the viability, T/C (second compound 0.1 µM, first compound 3.16 µM) of the same molecule?
Its viability, T/C is 46.2%.

And the viability, T/C (second compound 0.1 µM, first compound 10 µM)?
Its viability, T/C is 31.7%.

And the viability, T/C (second compound 0.316 µM, first compound 0.0316 µM)?
The viability, T/C was 50.3%.

What about the viability, T/C (second compound 0.316 µM, first compound 0.1 µM) of the same molecule?
The viability, T/C was 53.6%.

What about the viability, T/C (second compound 0.316 µM, first compound 0.316 µM) of the same molecule?
The viability, T/C was 64.3%.

What about the viability, T/C (second compound 0.316 µM, first compound 1 µM) of the same molecule?
The viability, T/C was 61.5%.

And the viability, T/C (second compound 0.316 µM, first compound 3.16 µM)?
Its viability, T/C is 50.1%.

And the viability, T/C (second compound 0.316 µM, first compound 10 µM)?
The viability, T/C was 34.1%.

What about the viability, T/C (second compound 1 µM, first compound 0.0316 µM) of the same molecule?
Its viability, T/C is 63.7%.

And the viability, T/C (second compound 1 µM, first compound 0.1 µM)?
The viability, T/C was 62.4%.

And the viability, T/C (second compound 1 µM, first compound 0.316 µM)?
The viability, T/C was 60.5%.

What about the viability, T/C (second compound 1 µM, first compound 1 µM) of the same molecule?
The viability, T/C was 54.3%.

And the viability, T/C (second compound 1 µM, first compound 3.16 µM)?
Its viability, T/C is 38.9%.

And the viability, T/C (second compound 1 µM, first compound 10 µM)?
The viability, T/C was 28.8%.

And the viability, T/C (second compound 3.16 µM, first compound 0.0316 µM)?
Its viability, T/C is 29.2%.

What about the viability, T/C (second compound 3.16 µM, first compound 0.1 µM) of the same molecule?
Its viability, T/C is 40.2%.

What about the viability, T/C (second compound 3.16 µM, first compound 0.316 µM) of the same molecule?
Its viability, T/C is 34.2%.

What about the viability, T/C (second compound 3.16 µM, first compound 1 µM) of the same molecule?
The viability, T/C was 30.8%.

What about the viability, T/C (second compound 3.16 µM, first compound 3.16 µM) of the same molecule?
Its viability, T/C is 25.6%.

What about the viability, T/C (second compound 3.16 µM, first compound 10 µM) of the same molecule?
Its viability, T/C is 21.1%.

What about the viability, T/C (second compound 10 µM, first compound 0.0316 µM) of the same molecule?
Its viability, T/C is 5.92%.

What about the viability, T/C (second compound 10 µM, first compound 0.1 µM) of the same molecule?
Its viability, T/C is 4.61%.

What about the viability, T/C (second compound 10 µM, first compound 0.316 µM) of the same molecule?
The viability, T/C was 4.06%.

What about the viability, T/C (second compound 10 µM, first compound 1 µM) of the same molecule?
The viability, T/C was 5.25%.

What about the viability, T/C (second compound 10 µM, first compound 3.16 µM) of the same molecule?
Its viability, T/C is 6.06%.

And the viability, T/C (second compound 10 µM, first compound 10 µM)?
Its viability, T/C is 4.36%.

Reference: PubChem BioAssay AID2060504 (Molecular Pharmacology Branch, DTP, NCI, 2025)
